Results reported in patent publication US11638713B2, “Patentiflorin A analogs as antiviral agents” (priority 2019, dated 2023).
Where two headings read alike, the source gives them in different places.

Assays:
HIV = experiment: microbe, parasite or virus in culture; assay type: cell-based
A549 cells [1] = system: A549 cells
H5N1 virus = experiment: microbe, parasite or virus in culture; assay type: cell-based, H5N1 influenza virus
EBOV (Ebola virus) = experiment: microbe, parasite or virus in culture; assay type: cell-based; conditions: Zaire ebolavirus
[2] = system: VSV (vesicular stomatitis virus); experiment: microbe, parasite or virus in culture; assay type: cell-based
A549 cells [3] = experiment: cells; conditions: Homo sapiens, A549, read-out: % Inhibition against A549 cells
[4] = system: broad HIV clinical strains; conditions: background; read-out: EC50 against broad HIV clinical strains; cited from earlier work

| Molecule | EC50 (HIV; read-out: EC50) | CC50 (A549 cells [1]) | EC50 (HIV; Human immunodeficiency virus 1, A549) | % Inhibition against H5N1 virus (H5N1 virus; 20 ng/mL) | inhibition at 0.02 µg/mL (H5N1 virus; Influenza A virus, H5N1, A549, 20 ng/mL, read-out: % Inhibition against H5N1 virus) | EC50 (H5N1 virus; Influenza A virus, H5N1, A549, read-out: EC50 against H5N1 virus) | EC50 (EBOV (Ebola virus); A549, read-out: EC50 against EBOV) | inhibition at 0.02 µg/mL (EBOV (Ebola virus); A549, 20 ng/mL, read-out: % Inhibition against EBOV) | inhibition at 0.02 µg/mL ([2]; A549, 20 ng/mL, read-out: % Inhibition against VSV) | EC50 ([2]; A549, read-out: EC50 against VSV) | inhibition at 0.02 µg/mL (A549 cells [3]) | EC50 [4] |
| --- | --- | --- | --- | --- | --- | --- | --- | --- | --- | --- | --- | --- |
| 2″-Acetyl-7-O-β-D-patentiflorin A [Compound 27bc] | 0.93 nM | 1370 nM | – | – | – | – | – | – | – | – | – | – |
| Cc1cn([C@H]2C[C@H](N=[N+]=[N-])[C@@H](CO)O2)c(=O)[nH]c1=O [AZT, zidovudine, reference compound] | – | – | 2.6 nM | 92.7% | 96.5% | 3.48 nM | 3.8 nM | 93.6% | 99.4% | 7.06 nM | 1.1% | 77 to 95 nM |
